Common to all, as to assay type: cell-based, human
Data set [1] relates to swim-up selected spermatozoa. In words: Forward motility of H2O2 treated swim-up selected spermatozoa. The settings on record: for forward motility: n=12. As to the method:
It is well known that reactive oxygen species (ROS), which may be generated during sperm preparation for IVF, exert detrimental effects on sperm fertilization potential. In particular, among ROS, H2O2 strongly reduces motility when added to sperm samples at micromolar concentrations. Therefore, the effect of LY294002 on H2O2 treated sperm cells was evaluated. The compound was added to swim-up selected spermatozoa samples from oligoasthenospermic patients in amounts of 10 µM either alone or in combination with 200 µM of H2O2. […]

Data set [2] relates to spermatozoa. In words: Motility of spermatozoa in seminal liquid, evaluated blindly under the microscope (WHO manual). As to the method: (§1) In the experiments the following examples are based on, standard methods of in vitro fertilization have been used. With regard to the details of these methods, reference is made to the "WHO manual" (WHO laboratory manual for the examination of human semen and sperm-cervical mucus interactions, 4th edtition, Cambridge University Press 1999). In particular, the direct swim-up method can be taken from pp. 104 to 106 of this manual.
Spermatozoa were prepared according to the standard procedures of IVF. Briefly, spermatozoa were prepared from 3 oligoasthenospermic subjects undergoing semen analysis for couple infertility after informed consent. 10 µM of the PI3K inhibitor LY294002 were added directly to the seminal liquid and incubated for 2 hours […] at 37°C and 5% CO2. The motility of the spermatozoa was then blindly evaluated under the microscope according to WHO manual procedures.
(§2) The compound was added in a concentration of 10 µM.

In data set [3] the test system is spermatozoa obtained by the swim-up method. Description: Motility of spermatozoa after incubation and swim-up selection. The source says: In the experiments the following examples are based on, standard methods of in vitro fertilization have been used. With regard to the details of these methods, reference is made to the "WHO manual" (WHO laboratory manual for the examination of human semen and sperm-cervical mucus interactions, 4th edtition, Cambridge University Press 1999). In particular, the direct swim-up method can be taken from pp. 104 to 106 of this manual. […]
Fig. 3 summarizes the results obtained in a similar experiment on samples from higher numbers of patients. The sperm cells were submitted to the swim-up selection method.
An improvement of percentage progressive motility after 2 hours of incubation of the sperm cells with LY294002 was clearly detectable, both on the rapid component (a) and on the rapid and slow component (a+b).
The experiments described above were performed on samples from oligoasthenospermic individuals. The effects on the stimulation of progressive motility by LY294002 are more pronounced the more serious the sperm pathology of patients is (oligospermia, asthenospermia, teratospermia). However, the effect of this compound could also be observed in normospermic subjects. […]

The subject of data set [4] is spermatozoa. Description: Total sperm cell recovery in swim-up selection. The settings on record: n=20. As to the method: as §1, §2
Table II summarizes the total sperm cell recovery in the swim-up, which was increased by 43% as compared to the control.

Data set [5] deals with spermatozoa. In words: Sperm viability by eosin test and hypo-osmotic swelling. The settings on record: 100 µM. As to the method: The effect of 100µM of LY294002 on the viability of the spermatozoa was also assessed (see insert of Fig. 3).
Data set [6] has as its system spermatozoa. Description: Computer aided sperm analysis (CASA) of sperm parameters. Particulars: 10 µM; 12 oligoasthenospermic subjects; vs control sample; Fig. 6. As to the method:
These parameters were determined by computer aided sperm analysis (CASA) in sperm samples from 12 different oligoasthenospermic subjects.

Data set [7] deals with swim-up selected spermatozoa. In words: Forward motility of LiCl treated swim-up selected spermatozoa. The settings on record: 10 µM, two hours, with or without different concentrations of LiCl; Fig. 7. From the text:
LiCl is also a known inhibitor of sperm cell motility.

Setting [8] is: 10 µM, 2 hours of incubation, 12 individual patients, swim-up, Fig. 4.

With `OO` [H2O2], the forward motility in data set [1] (200 µM H2O2 alone, oligoasthenospermic patients, control 45.4±5.0, P<0.0001 vs Control) is listed as 26.5±4.9 (n=12) %.

Consider `O=c1cc(N2CCOCC2)oc2c(-c3ccccc3)cccc12` [LY294002, 2-(4-morpholinyl)-8-phenyl-4H-1-benzopyran-4-one], for which the “rapid motility (a) of the spermatozoa in the seminal liquid” value with spermatozoa [2] (10 µM, 2 hours, 37°C, 5% CO2, 3 oligoasthenospermic subjects, Fig. 1) is reported as “increase of rapid motility”. In addition, in the data set with spermatozoa [2] (10 µM, 2 hours, 37°C, 5% CO2, 3 oligoasthenospermic subjects, Fig. 1B), the “percentage of forward motility (rapid and slow component a + b) in the seminal liquid” value is “increase”. Further, in the data set with spermatozoa [2] (LY 10 µM added to seminal plasma, 20 oligoasthenospermic patients, control 35.7±5.1, p<0.001), the “% Sperm Forward Motility, Sperm in Seminal Plasma” value turned out to be 49.8±4.7%. Also, in data set [3] (setting [8]), the “percentage progressive motility, rapid and slow component (a+b)” value was “improvement”; the “percentage progressive motility, rapid component (a)” value is “improvement”. Moreover, the “forward motility of spermatozoa” value in data set [3] (10 µM, two hours, then swim-up selection, 88 randomly selected subjects, control 53.5 ± 2.0 %) turned out to be 76.3 ± 1.5%. The “additional enhancement of spermatozoa motility” value in data set [3] (100 µM compared with 10 µM, swim-up, Fig. 3) is on record as “about 10%”. Moreover, in data set [3] (100 µM, 2 hours, then swim-up selection, 7 samples, Fig. 2), the progressive motility entry is given as “significant increase”. Besides, in data set [3] (Homo sapiens, Spermatozoa, 10 µM, 21 patients vs control 40 patients, swim-up, Fig. 3, read-out: increase in the progressive motility as compared to the control), the activation at 10 µM came out at 58%. The activation at 100 µM in data set [3] (Homo sapiens, Spermatozoa, 100 µM, 29 patients vs control 40 patients, swim-up, Fig. 3, read-out: increase of the motility as compared to the control) stood at 67%. The concentration giving a half-maximal response (EC50) in data set [3] (Homo sapiens, Spermatozoa, samples from normospermic individuals, 0 to 1000 µM, swim-up, Fig. 5, read-out: EC50 (effect dose of 50%) on the rapid forward motility) was approximately 1000 nM. The “% Sperm Forward Motility, Swim up-selected sperm” value in data set [3] (LY 10 µM added to seminal plasma, then swim-up, 20 oligoasthenospermic patients, control 54.2±4.5, p<0.001) is recorded as 68.6±3.9%. Moreover, the “increase of total sperm cell recovery in the swim-up vs control” value in the data set on spermatozoa [4] (10 µM) amounted to 43%. Moreover, the “Sperm recovery in swim up” value in the data set on spermatozoa [4] (LY 10 µM, control 13.3 ± 3.9, p<0.005) is 19.0 ± 4.8 10^6. In the data set with spermatozoa [5] (48 hours of incubation (not shown)), the sperm viability result is “no effect on sperm viability”. Further, the “vitality of the cells” value in the data set with spermatozoa [5] (incubation for two hours, eosin test and hypo-osmotic swelling) is “did not alter the vitality”. Besides, in the data set with spermatozoa [6], the “average path velocity (VAP)” value is listed as “increased in a statistically significant manner”, the “hyperactivated sperm fraction (HA)” value was “increased in a statistically significant manner”, the “percentage curvilinear velocity (VCL)” value is “increased in a statistically significant manner” and the “straight-line velocity (VSL)” value was “increased in a statistically significant manner”. Moreover, the “detrimental effects exerted by 200 µM H2O2 on sperm motility” value in data set [1] (10 µM LY294002 added to the incubation medium) is reported as “completely reversed”. In data set [1] (10 µM LY294002 in combination with 200 µM H2O2, P<0.002 vs H2O2), the forward motility was 52.6±5.5 (n=12) %. Moreover, the forward motility in data set [1] (10 µM alone, oligoasthenospermic patients, control 45.4±5.0, P<0.0001 vs Control) is 71.7±3.2 (n=12) %. The “LiCl induced inhibition of sperm motility” value in data set [7] is “reversing the effect”.

For the origin of these results see patent EP1196153B1, “PROCESS FOR THE IMPROVEMENT OF SPERMATOZOA FERTILIZATION ACTIVITY” (Applied Research Systems ARS Holding N.V., priority 1999, dated 2001).
